From patent publication US20140288025A1, “FATTY ACID ANTIVIRAL CONJUGATES AND THEIR USES” (Catabasis Pharmaceuticals, Inc., priority 2013, published 2014)
Where two headings read alike, the source gives them in different places.

How the values were obtained:
Format in all cases: cell-based
NF-κB = NF-κB luciferase reporter assay in RAW 264.7 macrophages; details: for IC50: Mus musculus
Method: RAW 264.7 cells stably expressing a 3×NFkB response element-drive luciferase reporter were seeded into 96 well plates in sera-free medium (Optimem) 18 hours prior to compound application. Compounds of the invention were prepared by first making 100 mM stock solutions in EtOH. […] Cells were then stimulated with 200 ng/ml LPS or vehicle control for 3 hours in the presence of the compounds of the invention. A set of six vehicles was left unstimulated with LPS in order to measure the assay floor. AlamarBlue viability dye (Invitrogen) was added to cells simultaneously with the delivery of LPS (final AlamarBlue concentration of 10%). After the 3 h incubation period with LPS, cell viability was measured by reading fluorescence (excitation 550 nm, emission 595 nm) with a Perkin Elmer Victor V plate reader. Then cell media was aspirated from each well. Luciferase signal was then developed by addition of the Britelite Plus reagent (Perkin Elmer). Luciferase activity was measured with the Perkin Elmer Victor V plate reader. NE-κB activity was expressed as a percent of the vehicle control wells (stimulated with LPS). Compounds were tested at 6 dose point titrations in triplicate to determine IC50 values.

HBV = HBV assay, extracellular HBV DNA in HepG2 2.2.15 cells; details: Hepatitis B virus, read-out: EC90 against HBV
Method: Extracellular HBV DNA analysis was carried out using the protocols outlined in Innaimo et al, Antimicrobial Agents and Chemotherapy 1997, 41, p. 1444-1448 and Korba and Milman Antiviral Research 1991, 15, p. 217-228. HepG2 2.2.15 cells were maintained in RPMI 1640 supplemented with 2 mM L-glutamine, 50 U of penicillin per mL, 50 μg of streptomycin per mL, 500 μg of G418 per mL, and 5% fetal bovine serum. Stock solutions of the test compounds were prepared according to the procedures outlined in example 3. HepG2 2.2.15 cells were plated at a density of 5×10^5 cells per well on 12-well Biocoat collagen-coated plates (Collaborative Biosciences, Beford, Mass.) and were maintained in a confluent state for 2 to 3 days before being overlaid with 1 mL of medium spiked with the antiviral compound. Compound-containing medium was changed daily for 9 days. On day 10, the media were collected and clarified by pelleting the cellular debris with a 5-min microcentrifuge spin at 16,000×g. Supernatants were processed for HBV DNA by the alkaline lysis method. Released HBV DNA was immobilized on a Magnagraph nylon membrane (Micron Separatations, Inc., Westborough, Mass.) by sing a dot blot manifold full-length HBV genome template excised from plasmid pTHBV-1 (American Type Culture Collection, Rockville, Md.) and ^32P-radiolabeled to a specific activity of 2×10^9 cpm/μg by using a random primer kit (Life Technologies, Grand Island, N.Y.). Quantification was performed on a Storm 860 phosphorimager (Molecular Dynamics, Sunnyvale, Calif.). All drug concentrations were tested in duplicate or triplicate, with antiviral effects being scored as reductions in the amount of HBV DNA present in the medium relative to that in untreated controls after the 10-day treatment period. Using the assay, the following EC90 values against HBV were obtained: […]

HIV-1IIIB strain = assay: HIV-1 cytoprotection assay (CEM-SS cells, MTS dye reduction); details: for IC50 HIV-1IIIB strain (nM): CEM-SS cells, 6 days, MTS
Method: Cytoprotection assays are commonly used for evaluating the antiviral efficacy of test compounds against a variety of viruses in different cell lines. […] Briefly, virus and cells are mixed in the presence of test compound and incubated for 6 days. […] Each assay plate contains cell control wells (cells only), virus control wells (cells plus virus), compound toxicity control wells (cells plus compound only), compound colorimetric control wells (compound only), as well as experimental wells (compound plus cells plus virus). Cytoprotection and compound cytotoxicity are assessed by MTS (CellTiter®96 Reagent, Promega, Madison Wis.) dye reduction. […] Each assay includes the HIV reverse transcriptase inhibitor AZT as a positive control.
CEM-SS cells were obtained from the NIH AIDS Research and Reference Reagent Program and are routinely passaged in T-75 flasks using standard tissue culture techniques based on the specifications provided by the supplier. On the day preceding the assay, the cells are split 1:2 to assure they are in an exponential growth phase at the time of infection. Total cell number and percent viability determinations are performed using a hemacytometer and trypan blue exclusion. […] The cells are re-suspended at 5×10^4 cells/mL in tissue culture medium and added to the drug-containing 96-well microtiter plates in a volume of 50 μl.
The viruses used for this assay are CXCR4-tropic laboratory virus strains. The most commonly used strains are HIV-1RF and HIV-1IIIB (each obtained from the NIH AIDS Research and Reference Reagent Program). For each assay, a pre-titered aliquot of virus is removed from the freezer (−80° C.) and allowed to thaw slowly to room temperature in a biological safety cabinet. The virus is re-suspended and diluted into tissue culture medium such that the amount of virus added to each well in a volume of 50 μl is the amount determined to give between 85 to 95% cell killing at 6 days post-infection.
Each plate contains cell control wells (cells only), virus control wells (cells plus virus), drug cytotoxicity wells (cells plus drug only), drug colorimetric control wells (drug only), background control wells (media only), as well as experimental wells (drug plus cells plus virus). Samples are evaluated for antiviral efficacy with triplicate measurements using 6 concentrations at half-log dilutions (12 concentrations can also be performed) in order to determine IC50 values and with duplicate measurements to determine cellular cytotoxicity, if detectable.
100% EtOH is added to the compounds of the invention such that the EtOH stock concentration is 50 mM. […] (VWR Ultrasonics Cleaner, Model #B8500A-DTH with “Sonics Power” set to HI); e) The 1:2 serial dilutions of the 1 mM 10× stock solution with FBS/2% EtOH are prepared such that the concentrations of the 10× stock solutions are 1 mM, 0.5 mM, 0.25 mM, etc., in FBS with 2% EtOH. Medium is aspirated off cells and replaced with serum free medium.

[1] = test system: HCV Con 1 subgenomic replicon; assay: HCV replicon assay (Huh-7 GS4.1 cells, NS4A ELISA); details: Hepatitis C virus, Huh-7 GS4.1 replicon cells, 72 hours
Method: The HCV replicon assay was carried out in the same manner described in WO 2010/018140, WO 2011/123586, Okuse et al Antivir. Res. 2005, 65, p. 23, Blight et al Science 2000, 290, p. 1972, Korba and Gerin Antivir. Res. 1992, 19, p. 55). Huh-7 cells containing HCV Con 1 subgenomic replicon (GS4.1 cells) were grown in Dulbecco's Modified Eagle Medium (DMEM) supplemented with 10% fetal bovine serum (FBS), 2 mM L-glutamine, 110 mg/L sodium pyruvate, 1× non-essential amino acids, 100 U/mL penicillin-streptomycin and 0.5 mg/mL G418 (Invitrogen). For dose-response testing, the cells were seeded in 96-well plates at 7.5×10^3 cells/well in a volume of […] and incubated at 37° C./5% CO2. […] The cells were incubated in the presence of compounds for 72 hours after which they are monitored for expression of the NS4A protein by enzyme-linked immunosorbent assay (ELISA). […] The reaction was stopped after 30 minutes with 2 N H2SO4 and the absorbance was read at 492 nm using a Sunrise Tecan spectrophotometer. EC50 values were determined from the % inhibition vs concentration data using a sigmoidal non-linear regression analysis based on four parameters with Tecan Magellan software. For cytotoxicity evaluation, GS4.1 cells are treated with compounds as described and cellular viability can be monitored using a Cell Titer 96 AQueous One Solution Cell Proliferation Assay (Promega). […]

[2] = RAW264.7, 3 h, read-out: NF-kB inhibitory activity IC50 μM

SMILES	IC50 (NF-κB; [2]) [µM]	EC90 (HBV; HepG2 2.2.15, 240 h) [µM]	other results
CC/C=C\C/C=C\C/C=C\C/C=C\C/C=C\C/C=C\CCC(=O)Nc1ccn([C@@H]2CS[C@H](CO)O2)c(=O)n1 [Example V-18, (4Z,7Z,10Z,13Z,16Z,19Z)—N-(1-((2R,5S)-2-(hydroxymethyl)-1,3-oxathiolan-5-yl)-2-oxo-1,2-dihydropyrimidin-4-yl)docosa-4,7,10,13,16,19-hexaenamide]			IC50 (NF-κB; RAW264.7, RAW 264.7 reporter cells, 200 ng/ml LPS, 3 hours, read-out: NF-kB inhibitory activity IC50): > 200 µM; EC90 (HBV; 240 h, HepG2 2.2.15 cells, extracellular HBV DNA, 10-day treatment): 0.081 µM; IC50 HIV-1IIIB strain (nM) (HIV-1IIIB strain): + ++
CC/C=C\C/C=C\C/C=C\C/C=C\C/C=C\C/C=C\CCC(=O)NCCNC(=O)OC[C@@H]1O[C@H](n2ccc(N)nc2=O)CS1 [Example V-21, ((2R,5S)-5-(4-amino-2-oxopyrimidin-1(2H)-yl)-1,3-oxathiolan-2-yl)methyl (2-((4Z,7Z,10Z,13Z,16Z,19Z)-docosa-4,7,10,13,16,19-hexaenamido)ethyl)carbamate]	50 to 200	0.079	IC50 HIV-1IIIB strain (nM) (HIV-1IIIB strain): + ++
CC/C=C\C/C=C\C/C=C\C/C=C\C/C=C\C/C=C\CCC(=O)NCCNP(=O)(OC[C@H]1O[C@@H](n2ccc(=O)[nH]c2=O)[C@](C)(F)[C@@H]1O)Oc1ccccc1 (stereo partly drawn) [II-1, ((2R,3R,4R,5R)-5-(2,4-dioxo-3,4-dihydropyrimidin-1(2H)-yl)-4-fluoro-3-hydroxy-4-methyltetrahydrofuran-2-yl)methyl phenyl (2-((4Z,7Z,10Z,13Z,16Z,19Z)-docosa-4,7,10,13,16,19-hexaenamido)ethyl) phosphoramidate]			EC50 [1]: 0.78 µM
C=C1[C@H](COP(=O)(NCCNC(=O)CC/C=C\C/C=C\C/C=C\C/C=C\C/C=C\C/C=C\CC)OC)[C@@H](O)C[C@@H]1n1cnc2c(=O)nc(N)[nH]c21 (stereo partly drawn) [II-46, ((1R,3S,5S)-3-(2-amino-6-oxo-3H-purin-9(6H)-yl)-5-hydroxy-2-methylenecyclopentyl)methyl methyl (2-((4Z,7Z,10Z,13Z,16Z,19Z)-docosa-4,7,10,13,16,19-hexaenamido)ethyl)phosphoramidate]		0.007	
C=C1[C@H](COP(=O)(NCCNC(=O)CCC/C=C\C/C=C\C/C=C\C/C=C\C/C=C\CC)OC)[C@@H](O)C[C@@H]1n1cnc2c(=O)nc(N)[nH]c21 (stereo partly drawn) [II-48, ((1R,3S,5S)-3-(2-amino-6-oxo-3H-purin-9(6H)-yl)-5-hydroxy-2-methylenecyclopentyl)methyl methyl (2-((5Z,8Z,11Z,14Z,17Z)-icosa-5,8,11,14,17-pentaenamido)ethyl)phosphoramidate]	50 to 200	0.007	
CC/C=C\C/C=C\C/C=C\C/C=C\C/C=C\C/C=C\CCC(=O)NCCNP(=O)(OC[C@@H]1O[C@H](n2ccc(N)nc2=O)CS1)Oc1ccccc1 (stereo partly drawn) [II-67, ((2R,5S)-5-(4-amino-2-oxopyrimidin-1(2H)-yl)-1,3-oxathiolan-2-yl)methyl phenyl (2-((4Z,7Z,10Z,13Z,16Z,19Z)-docosa-4,7,10,13,16,19-hexaenamido)ethyl)phosphoramidate]		0.075	NF-kB inhibitory activity IC50 μM (NF-κB; RAW 264.7 reporter cells, 200 ng/ml LPS, 3 hours): + +; IC50 (HIV-1IIIB strain; Human immunodeficiency virus 1, IIIB, CEM-SS, 144 h, read-out: IC50 HIV-1IIIB strain (nM)): < 100 nM
CC/C=C\C/C=C\C/C=C\C/C=C\C/C=C\CCCC(=O)NCCNP(=O)(OC[C@@H]1OC(n2ccc(N)nc2=O)CS1)Oc1ccccc1 (stereo partly drawn) [II-68]	50 to 200	0.082	
